Data on eleven molecules can be found in BindingDB's records for doi:10.1016/j.bmcl.2009.11.061 (Glaxosmithkline, 2010).

The experiment is described as follows: Inhibition of GSK3beta phosphorylation in human BT474 cells.
The IC50 is the point on the concentration scale where inhibition reaches its midpoint. High values mean lower potency, low ones higher potency. The molecule `Cc1occc1-c1nc(N)c(OC[C@@H](N)Cc2c(C#N)[nH]c3ccccc23)cc1-c1cnc2[nH]nc(C)c2n1` [3-((2S)-2-amino-3-(2-amino-5-(3-methyl-1H-pyrazolo[4,3-b]pyrazin-5-yl)-6-(2-methylfuran-3-yl)pyridin-3-yloxy)propyl)-1H-indole-2-carbonitrile] had an IC50 of more than 30000 nM.

In turn, `CCNc1nc(-c2ccoc2)c(-c2cnc3[nH]nc(C)c3n2)cc1OC[C@@H](N)Cc1ccccc1` [(S)-3-(2-amino-3-phenylpropoxy)-N-ethyl-6-(furan-3-yl)-5-(3-methyl-1H-pyrazolo[4,3-b]pyrazin-5-yl)pyridin-2-amine] yielded an IC50 of more than 10000 nM.

Regarding `Cc1occc1-c1nc(N)c(OC[C@@H](N)Cc2ccccc2)cc1-c1cnc2[nH]nc(C)c2n1` [3-((S)-2-amino-3-phenylpropoxy)-5-(3-methyl-1H-pyrazolo[4,3-b]pyrazin-5-yl)-6-(2-methylfuran-3-yl)pyridin-2-amine], the IC50 worked out at 280 nM.

For `Cc1occc1-c1nc(N)c(OC[C@@H](N)Cc2c[nH]c3ccccc23)cc1-c1cc2c(C)n[nH]c2cn1` [3-((S)-2-amino-3-(1H-indol-3-yl)propoxy)-5-(3-methyl-1H-pyrazolo[3,4-c]pyridin-5-yl)-6-(2-methylfuran-3-yl)pyridin-2-amine], 680 nM corresponded to half-maximal inhibition (IC50).

As to `Cc1occc1-c1nc(N)c(OC[C@@H](N)Cc2c(C(N)=O)[nH]c3ccccc23)cc1-c1cnc2[nH]nc(C)c2n1` [3-((2S)-2-amino-3-(2-amino-5-(3-methyl-1H-pyrazolo[4,3-b]pyrazin-5-yl)-6-(2-methylfuran-3-yl)pyridin-3-yloxy)propyl)-1H-indole-2-carboxamide], the IC50 is more than 30000 nM.

For `Cc1occc1-c1nc(N)c(OC[C@@H](N)Cc2c[nH]c3ccccc23)cc1-c1ccc2[nH]nc(C)c2c1` [3-((S)-2-amino-3-(1H-indol-3-yl)propoxy)-5-(3-methyl-1H-indazol-5-yl)-6-(2-methylfuran-3-yl)pyridin-2-amine], the IC50 worked out at 220 nM.

Consider `Cc1nc(-c2ccoc2)c(-c2cnc3[nH]nc(C)c3n2)cc1OC[C@@H](N)Cc1c[nH]c2ccccc12` [(S)-1-(6-(furan-3-yl)-2-methyl-5-(3-methyl-1H-pyrazolo[4,3-b]pyrazin-5-yl)pyridin-3-yloxy)-3-(1H-indol-3-yl)propan-2-amine], for which the IC50 was determined as 280 nM.

Regarding `Cc1occc1-c1nc(N)c(OC[C@@H](N)Cc2c[nH]c3ccccc23)cc1-c1cnc2[nH]nc(C)c2n1` [3-((S)-2-amino-3-(1H-indol-3-yl)propoxy)-5-(3-methyl-1H-pyrazolo[4,3-b]pyrazin-5-yl)-6-(2-methylfuran-3-yl)pyridin-2-amine], half-maximal inhibition (IC50) required 560 nM.

For `Cc1occc1-c1ncc(OC[C@@H](N)Cc2c[nH]c3ccccc23)cc1-c1cnc2[nH]nc(C)c2n1` [(2S)-1-(1H-indol-3-yl)-3-(5-(3-methyl-1H-pyrazolo[4,3-b]pyrazin-5-yl)-6-(2-methylfuran-3-yl)pyridin-3-yloxy)propan-2-amine], it took 210 nM to reach half-maximal inhibition (IC50). Against the preceding molecule, the IC50 is about 2.7-fold lower.

On to `Cc1n[nH]c2ncc(-c3cc(OC[C@@H](N)Cc4c[nH]c5ccccc45)c(C#N)nc3-c3ccoc3)nc12` [(S)-3-(2-amino-3-(1H-indol-3-yl)propoxy)-6-(furan-3-yl)-5-(3-methyl-1H-pyrazolo[4,3-b]pyrazin-5-yl)picolinonitrile], for which the IC50 is more than 10000 nM.

`Cc1occc1-c1nc(N)c(OC[C@@H](N)Cc2c(Cl)[nH]c3ccccc23)cc1-c1cnc2[nH]nc(C)c2n1` [3-((S)-2-amino-3-(2-chloro-1H-indol-3-yl)propoxy)-5-(3-methyl-1H-pyrazolo[4,3-b]pyrazin-5-yl)-6-(2-methylfuran-3-yl)pyridin-2-amine] yielded an IC50 of 300 nM.
